# Experimental data as given in patent publication US11155557B2, “Pyrazolopyrimidine compounds and methods of use thereof” (Genentech, Inc., priority 2016, dated 2021).
# Where two headings read alike, the source gives them in different places.
# Legend:
# [1] = target: isolated recombinant JAK2 kinase domain (Homo sapiens (Human), UniProt O60674); test: JAK2 enzyme assay (Caliper LabChip, Ki)
# Description: JAK Enzyme Assays were Carried Out as Follows:
# The activity of the isolated recombinant JAK1 and JAK2 kinase domain was measured by monitoring phosphorylation of a peptide derived from JAK3 ([sequence] fluorescently labeled on the N-terminus with 5-carboxyfluorescein) using the Caliper LabChip R technology (Caliper Life Sciences, Hopkinton, Mass.). […] After termination of the kinase reaction, the proportion of phosphorylated product was determined as a fraction of total peptide substrate using the Caliper LabChip R 3000 according to the manufacturer's specifications.
# [2] = target: isolated recombinant JAK1 kinase domain (Homo sapiens (Human), UniProt P23458); test: JAK1 enzyme assay (Caliper LabChip, Ki); type: biochemical
# Sequence of isolated recombinant JAK1 kinase domain (P23458 875-1153): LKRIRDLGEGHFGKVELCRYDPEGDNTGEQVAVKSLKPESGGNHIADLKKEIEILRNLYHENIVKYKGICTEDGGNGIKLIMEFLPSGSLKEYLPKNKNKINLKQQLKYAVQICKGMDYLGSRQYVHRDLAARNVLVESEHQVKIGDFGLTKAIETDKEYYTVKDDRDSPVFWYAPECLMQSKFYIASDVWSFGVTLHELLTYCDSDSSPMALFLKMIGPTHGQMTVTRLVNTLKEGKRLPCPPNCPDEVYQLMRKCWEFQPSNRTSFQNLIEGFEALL
# Description: The activity of the isolated recombinant JAK1 and JAK2 kinase domain was measured by monitoring phosphorylation of a peptide derived from JAK3 ([…] fluorescently labeled on the N-terminus with 5-carboxyfluorescein) using the Caliper LabChip R technology (Caliper Life Sciences, Hopkinton, Mass.).
# [3] = tested on: JAK1-dependent STAT6 phosphorylation in BEAS-2B human bronchial epithelial cells; test: JAK1 pathway assay: IL-13 stimulated STAT6 phosphorylation in BEAS-2B cells; type: cell-based; conditions: BEAS-2B cells, IL-13 stimulation, read-out: IL-13 p-STAT6 BEAS-2B IC50
# Description: JAK1 Pathway Assay in Cell Lines was Carried Out as Follows:
# Inhibitor potency (EC50) was determined in cell-based assays designed to measure JAK1 dependent STAT phosphorylation.
# In one assay approach, TF-1 human erythroleukemia cells obtained from the American Type Culture Collection (ATCC; Manassas, Va.) were used to measure JAK1-dependent STAT6 phosphorylation downstream of IL-13 stimulation. Prior to use in the assays, TF-1 cells were starved of GM-CSF overnight in OptiMEM medium (Life Technologies, Grand Island, N.Y.) supplemented with 0.5% charcoal/dextran stripped fetal bovine serum (FBS), 0.1 mM non-essential amino acids (NEAA), and 1 mM sodium pyruvate. The assays were run in 384-well plates in serum-free OptiMEM medium using 300,000 cells per well. In a second assay approach, BEAS-2B human bronchial epithelial cells obtained from ATCC were plated at 100,000 cells per well of a 96-well plate one day prior to the experiment. The BEAS-2B assay was run in complete growth medium (bronchial epithelial basal medium plus bulletkit; Lonza; Basel, Switzerland).
# Test compounds were serially diluted 1:2 in DMSO and then diluted 1:50 in medium just before use. Diluted compounds were added to the cells, for a final DMSO concentration of 0.2%, and incubated for 30 min (for the TF-1 assay) or 1 hr (for the BEAS-2B assay) at 37° C. Then, cells were stimulated with human recombinant cytokine at their respective EC90 concentrations, as previously determined for each individual lot. Cells were stimulated with IL-13 (R&D Systems, Minneapolis, Minn.) for 15 min at 37° C. […] The resultant samples were frozen in the plates at −80° C. Compound mediated inhibition of STAT6 phosphorylation was measured in the cell lysates using MesoScale Discovery (MSD) technology (Gaithersburg, Md.).
# Sequence of isolated recombinant JAK2 kinase domain (O60674 849-1124): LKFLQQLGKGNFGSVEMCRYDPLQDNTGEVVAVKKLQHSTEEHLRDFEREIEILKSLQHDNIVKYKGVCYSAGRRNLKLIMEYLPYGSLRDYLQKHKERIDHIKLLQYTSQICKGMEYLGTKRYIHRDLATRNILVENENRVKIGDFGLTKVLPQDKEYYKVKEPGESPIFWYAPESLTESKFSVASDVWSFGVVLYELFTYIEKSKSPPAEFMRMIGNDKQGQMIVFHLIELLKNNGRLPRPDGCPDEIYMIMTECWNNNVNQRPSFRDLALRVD
Compound,Ki ([1]; read-out: JAK2 Ki) [nM],Ki [2] [nM],"IC50 ([3]; Homo sapiens, BEAS-2B) [nM]",Ki [1] [nM],IC50 [3] [nM]
"O=C(Nc1cn(CC(=O)N2CCCCC2)nc1-c1cc2c(cc1OC(F)F)NCCO2)c1cnn2cccnc12 [Example 6, N-[3-[6-(difluoromethoxy)-3,4-dihydro-2H-1,4-benzoxazin-7-yl]-1-[2-oxo-2-(piperidin-1-yl)ethyl]-1H-pyrazol-4-yl]pyrazolo[1,5-a]pyrimidine-3-carboxamide]",0.31,0.2,17,–,–
"COC(=O)c1cc2cc(OC(F)F)c(-c3n[nH]cc3NC(=O)c3cnn4cccnc34)cc2s1 [Example 7, Methyl 5-(difluoromethoxy)-6-(4-(pyrazolo[1,5-a]pyrimidine-3-carboxamido)-1H-pyrazol-3-yl)benzo[b]thiophene-2-carboxylate]",0.11,0.17,6,–,–
"COC(=O)Cn1cc(NC(=O)c2cnn3cccnc23)c(-c2cc3sccc3cc2OC(F)F)n1 [Example 8, Methyl 2-(3-(5-(difluoromethoxy)benzo[b]thiophen-6-yl)-4-(pyrazolo[1,5-a]pyrimidine-3-carboxamido)-1H-pyrazol-1-yl)acetate]",0.29,0.32,10,–,–
"CC(C)(C)OC(=O)N1CCN(C(=O)c2cc3cc(OC(F)F)c(-c4n[nH]cc4NC(=O)c4cnn5cccnc45)cc3s2)CC1 [Example 9, tert-Butyl 4-(5-(difluoromethoxy)-6-(4-(pyrazolo[1,5-a]pyrimidine-3-carboxamido)-1H-pyrazol-3-yl)benzo[b]thiophene-2-carbonyl)piperazine-1-carboxylate]",2.85,3.99,153,–,–
"O=C(Nc1c[nH]nc1-c1cc2sc(C(=O)N3CCNCC3)cc2cc1OC(F)F)c1cnn2cccnc12 [Example 10, N-(3-(5-(difluoromethoxy)-2-(piperazine-1-carbonyl)benzo[b]thiophen-6-yl)-1H-pyrazol-4-yl)pyrazolo[1,5-a]pyrimidine-3-carboxamide]",1.99,4.54,> 1000,–,–
O=C(Nc1c[nH]nc1-c1cc2c(cc1OC(F)F)NCCO2)c1cnn2cccnc12 [Example 11],0.08,0.1,4,–,–
"O=C(Nc1c[nH]nc1-c1cc2c(cc1OC(F)F)NCCS2)c1cnn2cccnc12 [Example 12, N-(3-(6-(difluoromethoxy)-3,4-dihydro-2H-benzo[b][1,4]thiazin-7-yl)-1H-pyrazol-4-yl)pyrazolo[1,5-a]pyrimidine-3-carboxamide]",0.06,0.09,6,–,–
"NCCn1cc(NC(=O)c2cnn3cccnc23)c(-c2cc3c(cc2OC(F)F)NCCS3)n1 [Example 13, N-(1-(2-aminoethyl)-3-(6-(difluoromethoxy)-3,4-dihydro-2H-benzo[b][1,4]thiazin-7-yl)-1H-pyrazol-4-yl)pyrazolo[1,5-a]pyrimidine-3-carboxamide]",0.13,0.18,20,–,–
"O=C1CSc2cc(-c3n[nH]cc3NC(=O)c3cnn4cccnc34)c(OC(F)F)cc2N1 [Example 14, N-[3-[6-(difluoromethoxy)-3-oxo-3,4-dihydro-2H-1,4-benzothiazin-7-yl]-1H-pyrazol-4-yl]pyrazolo[1,5-a]pyrimidine-3-carboxamide]",0.04,0.05,27,–,–
"O=C(Nc1c[nH]nc1-c1cc2c(cc1OC(F)F)CCO2)c1cnn2cccnc12 [Example 16, N-(3-(5-(difluoromethoxy)-2,3-dihydrobenzofuran-6-yl)-1H-pyrazol-4-yl)pyrazolo[1,5-a]pyrimidine-3-carboxamide]",0.09,0.21,5,–,–
"O=C(Nc1c[nH]nc1-c1cc2c(cc1OC(F)F)CCCO2)c1cnn2cccnc12 [Example 17, N-[3-[6-(difluoromethoxy)-3,4-dihydro-2H-1-benzopyran-7-yl]-H-pyrazol-4-yl]pyrazolo[1,5-a]pyrimidine-3-carboxamide]",0.14,0.32,14,–,–
"COC(=O)Cn1cc(NC(=O)c2cnn3cccnc23)c(-c2cc3sc(C#N)cc3cc2OC(F)F)n1 [Example 19, Methyl 2-(3-(2-cyano-5-(difluoromethoxy)benzo[b]thiophen-6-yl)-4-(pyrazolo[1,5-a]pyrimidine-3-carboxamido)-1H-pyrazol-1-yl)acetate]",0.33,0.3,21,–,–
"Cn1cc(NC(=O)c2cnn3cccnc23)c(-c2cc3sc(C(=O)N4CCN(C(=O)OC(C)(C)C)CC4)cc3cc2OC(F)F)n1 [Example 20, tert-Butyl 4-(5-(difluoromethoxy)-6-(1-methyl-4-(pyrazolo[1,5-a]pyrimidine-3-carboxamido)-1H-pyrazol-3-yl)benzo[b]thiophene-2-carbonyl)piperazine-1-carboxylate]",4.48,5.57,186,–,–
"O=C(Nc1c[nH]nc1-c1cc2cn[nH]c2cc1OC(F)F)c1cnn2cccnc12 [Example 21, N-(3-(6-(difluoromethoxy)-1H-indazol-5-yl)-1H-pyrazol-4-yl)pyrazolo[1,5-a]pyrimidine-3-carboxamide]",–,0.07,37,0.05,–
"COc1cc2cc(C)sc2cc1-c1n[nH]cc1NC(=O)c1cnn2cccnc12 [Example 22, N-(3-(5-methoxy-2-methylbenzo[b]thiophen-6-yl)-1H-pyrazol-4-yl)pyrazolo[1,5-a]pyrimidine-3-carboxamide]",0.12,0.19,6,–,–
"COc1cc2sc(C#N)cc2cc1-c1n[nH]cc1NC(=O)c1cnn2cccnc12 [Example 24, N-(3-(2-cyano-6-methoxybenzo[b]thiophen-5-yl)-H-pyrazol-4-yl)pyrazolo[1,5-a]pyrimidine-3-carboxamide]",0.27,0.41,14,–,–
"Cc1cc2cc(OC(F)F)c(-c3n[nH]cc3NC(=O)c3cnn4cccnc34)cc2s1 [Example 25, N-(3-(5-(difluoromethoxy)-2-methylbenzo[b]thiophen-6-yl)-1H-pyrazol-4-yl)pyrazolo[1,5-a]pyrimidine-3-carboxamide]",0.06,0.11,5,–,–
"O=C(Nc1c[nH]nc1-c1cc2c(cc1OC(F)F)CCC2)c1cnn2cccnc12 [Example 26, N-[3-[6-(difluoromethoxy)indan-5-yl]-1H-pyrazol-4-yl]pyrazolo[1,5-a]pyrimidine-3-carboxamide]",0.08,0.19,8,–,–
"COc1cc2c(cc1-c1n[nH]cc1NC(=O)c1cnn3cccnc13)CCC2 [Example 27, N-[3-(6-methoxyindan-5-yl)-1H-pyrazol-4-yl]pyrazolo[1,5-a]pyrimidine-3-carboxamide]",0.34,0.89,6,–,–
"COc1cc2cnccc2cc1-c1n[nH]cc1NC(=O)c1cnn2cccnc12 [Example 29, N-[3-(7-methoxy-6-isoquinolyl)-1H-pyrazol-4-yl]pyrazolo[1,5-a]pyrimidine-3-carboxamide]",0.49,0.84,85,–,–
"COc1cc2[nH]ncc2cc1-c1n[nH]cc1NC(=O)c1cnn2cccnc12 [Example 30, N-[3-(6-methoxy-1H-indazol-5-yl)-1H-pyrazol-4-yl]pyrazolo[1,5-a]pyrimidine-3-carboxamide]",0.2,0.3,–,–,369
"COc1cc2[nH]cnc2cc1-c1n[nH]cc1NC(=O)c1cnn2cccnc12 [Example 31, N-[3-(6-methoxy-1H-benzimidazol-5-yl)-1H-pyrazol-4-yl]pyrazolo[1,5-a]pyrimidine-3-carboxamide]",0.9,2.09,6910,–,–
"COc1cc2cnsc2cc1-c1n[nH]cc1NC(=O)c1cnn2cccnc12 [Example 32, N-[3-(5-methoxy-1,2-benzothiazol-6-yl)-1H-pyrazol-4-yl]pyrazolo[1,5-a]pyrimidine-3-carboxamide]",0.11,0.16,2,–,–
"COc1cc2sncc2cc1-c1n[nH]cc1NC(=O)c1cnn2cccnc12 [Example 33, N-[3-(6-methoxy-1,2-benzothiazol-5-yl)-1H-pyrazol-4-yl]pyrazolo[1,5-a]pyrimidine-3-carboxamide]",0.4,0.91,21,–,–
"COc1cc2sccc2cc1-c1[nH]ncc1NC(=O)c1cnn2cccnc12 [Example 34, N-[5-(6-methoxybenzothiophen-5-yl)-1H-pyrazol-4-yl]pyrazolo[1,5-a]pyrimidine-3-carboxamide]",0.19,0.6,10,–,–
